Measurements as given in US20240400980A1, “PORCINE PLURIPOTENT STEM CELL CULTURE MEDIUM AND USE THEREOF” (CHINA AGRICULTURAL UNIVERSITY, priority 2021, published 2024).
“Also recorded” adds a separate entry of the source.

Key:
Assay type in all cases: cell-based, porcine
[1] = tested on: pgEpiSCs; experiment: RT-qPCR of marker genes in pgEpiSCs in modified 3i/LAF medium; details: for marker gene mRNA expression after removal of the component: component removed from 3i/LAF medium, qRT-PCR
Description: Total RNA of pgEpiSCs was extracted using a RNAprep Pure Cell/Bacteria Kit (TIANGEN, DP430), and then reverse transcribed into cDNA using 5× all-in-one RT premix (Abm, G490). PCR was performed using 2× RealStar Green Power Mixture (GenStar, A311-05) on the LightCycler 480 II real-time system (Roche). Comparative CT (2^−ΔΔCT) method was used to analyze the data. ACT was calculated using EF1A as an internal control. Three biological replicates were performed for all experiments. Primers for quantitative real-time PCR were listed in the key resource table.
(§1) Based on the prepared 3i/LAF medium and its culture method in2 above, the requirement of various factors for long-term maintenance in vitro of pgEpiSCs was test by the inventors under the same conditions as in 2 above, except for removing small molecule inhibitors and cytokines from the medium one by one.
(§2) In addition, based on the prepared 3i/LAF medium and its culture method in 2 above, the following tests were also performed by the inventors under the same conditions as in 2 above.

[2] = tested on: pgEpiSCs; experiment: Immunofluorescence of POU5F1 and EOMES in pgEpiSCs in modified 3i/LAF medium; details: component removed from 3i/LAF medium
Description: Cells were washed with DPBS (Gibco, C14190500BT) and fixed with 4% paraformaldehyde at room temperature for 30 minutes, then washed again with DPBS, permeabilized in 0.1% Triton X-100 for 20 minutes, and blocked with 3% BSA for 1 hour. Cells were incubated with the primary antibody diluted with 3% BSA overnight at 4° C. Cells were then washed 3 times with the washing buffer (DPBS containing 0.1% Triton X-100 and 0.1% Tween 20) for 3 minutes each time. Cells were incubated with diluted secondary antibody and washing buffer together at room temperature for 1 hour, then washed 3 times with the washing buffer for 5 minutes, followed by nuclear staining with DAPI (Roche Life Science, 10236276001) for 3 minutes.
as §1

[3] = tested on: pgEpiSCs; experiment: Proliferation and passage of pgEpiSCs with FGF2 removed or varied; details: for proliferation and passage of pgEpiSCs: FGF2 removed, with addition of PD0325901
Description: Porcine EpiSCs were cultured in 12-well plates. Cell samples were seeded in triplicate at a density of 2×10^4 cells per well. Cells were counted every 12 hours. Cells were digested and counted using the Luna™ automated cell counter at each time point. The results of the three counts were averaged and plotted. The cell doubling time was calculated as follows: Doubling Time (DT)=24×[lg2/(lgNt−IgN0)], where 24 was the cell culture time (hours); Nt was the number of cells cultured for 48 hours; and No was the number of cells recorded at 24 hours.
as §1

[4] = tested on: pgEpiSCs; experiment: Clone morphology and alkaline phosphatase (AP) staining of pgEpiSCs in modified 3i/LAF medium; details: for clone morphology / AP staining after removal of the component: component removed from 3i/LAF medium
Text: The alkaline phosphatase staining for pgEpiSCs was based on the Alkaline Phosphatase Detection Kit (Millipore, SCR004).
The specific experimental steps followed the instructions for the kit.
as §1, §2
According to the 3i/LAF medium and its culture method prepared in 2 above, the inventors also investigated the effect of the adjusted or replaced medium on the long-term in vitro maintenance of pgEpiSCs on the basis of adjusting the concentrations of the small molecule inhibitors and cytokines or replacing the compositions of the small molecule inhibitors and cytokines in the culture medium one by one without altering the other conditions.
Experimental method: pgEpiSCs were cultured with the adjusted medium, after which AP staining was performed on the cultured pgEpiSCs of P1 (indicating the pgEpiSCs after 1 passage in the adjusted medium) or P3 (indicating the pgEpiSCs after 3 passages in the adjusted medium). The specific steps of AP staining are described in the section of Experimental Methods described previously.
Principle of the experiment: undifferentiated stem cells will express Ap at high level. By staining fixed stem cells, differentiated cells show no color and undifferentiated cells show purple or red color.

[5] = tested on: phosphorylated STAT3; experiment: Western blot of phosphorylated STAT3 in pgEpiSCs; details: with or without LIF; Western blotting
Description: Total proteins in cells were extracted using cell lysis buffer (Beyotime Biotechnology, P0013), and nuclear and cytoplasmic proteins were extracted using a cell nucleus and cytoplasmic protein extraction kit (Beyotime Biotechnology, P0027) supplemented with protease and phosphatase inhibitors (P1050). The concentration of extracted proteins was measured using a Bradford protein detection kit (Bio-red, 5000201). An equal amount of proteins (15 μg) were separated by SDS-PAGE gel electrophoresis, and then transferred from the gel to the Immobilon-P transfer membrane (Merck Millipore; pore size: 0.45 μm; IPVH00010). The blots were blocked in 5% skim milk powder (Sangon Biotech, A600669-0250) in TBST (20 mM Tris, pH 7.5; 150 mM NaCl; 0.1% Tween 20) at room temperature for 1 hour, and then incubated with the antibody diluted in 5% skim milk powder in TBST at 4° C. overnight. The next day, the blots were rinsed 3 times with TBST for 5 minutes each time, and then incubated with HRP conjugated secondary antibody diluted in 5% skim milk powder in TBST at room temperature for 1 hour, and finally rinsed 3 times with TBST for 5 minutes each time. The blots were developed using SuperSignal® West Dura Extended Duration Substrate (Thermo Fisher Scientific, 34075), followed by analysis of the band strength of the target protein using the CLINX chemiluminescence software. […]

[6] = IWR-1-endo replaced in 3i/LAF medium

Molecule: COc1ccc(N(C(=O)Oc2c(C)cccc2C)c2ccnc(Nc3ccc(N4CCN(C)CC4)cc3)n2)c(OC)c1 [WH-4-023]
- marker gene mRNA expression after removal of the component [1]: upregulation of the gastrulation formation marker genes BMP2, BMP4, EOMES and T
- POU5F1 and EOMES immunostaining after removal of the component [2]: reduced or heterogeneous accumulation of the pluripotency factor POU5F1, while promoting the expression of the mesoderm and endoderm progenitor cell marker EOMES

Molecule: Cc1c[nH]c(-c2cnc(NCCNc3ccc(C#N)cn3)nc2-c2ccc(Cl)cc2Cl)n1 [CHIR99021]
- marker gene mRNA expression after removal of the component [1]: downregulated the expression of cell proliferation related genes such as LIN28A, C-MYC, ETV4 and ETV5
- expression of POU5F1 and GATA6 at high concentration ([1]; high concentration of CHIR99021 in 3i/LAF medium): downregulation of the pluripotency marker POU5F1 and significant upregulation of the endodermal marker GATA6; also recorded: the expression of the pluripotency gene POU5F1 was reduced, and the expression of the lineage differentiation gene GATA6 was upregulated, presenting a heterogeneous expression pattern
- expression levels of TBX3 and ESRRB ([1]; increasing concentration of CHIR99021 in 3i/LAF medium): increased with increasing concentration

Molecule: O=C(NOC[C@H](O)CO)c1ccc(F)c(F)c1Nc1ccc(I)cc1F [PD0325901]
- proliferation and passage of pgEpiSCs [3]: could not proliferate or passage normally

Molecule: NC(=O)c1ccc(-c2nc(-c3ccc4c(c3)OCO4)c(-c3ccccn3)[nH]2)cc1 [SB431542]
- clone morphology after addition of the inhibitor ([4]; inhibitor added to the medium): irregular clone morphology
- BMP4 and BMP downstream transcription factors ID2, ID3 after addition of the inhibitor ([1]; inhibitor added to the medium): significant increase in BMP4 and BMP downstream transcription factors (such as ID2 and ID3)
- NANOG levels after addition of the inhibitor ([1]; inhibitor added to the medium): significant decline in NANOG levels
- pluripotency markers POU5F1 and REX1 after addition of the inhibitor ([1]; inhibitor added to the medium): significant decrease in pluripotency markers (such as POU5F1 and REX1)

Molecule: O=C(Nc1cccc2cccnc12)c1ccc(N2C(=O)[C@@H]3[C@H](C2=O)[C@@H]2C=C[C@H]3C2)cc1 [IWR-1-endo]
- clone morphology / AP staining after removal of the component [4]: unclear boundaries of pgEpiSC clones
- marker gene mRNA expression after removal of the component [1]: significant downregulation of core pluripotency factors such as NANOG, POU5F1, SOX2 and REX1; also recorded: upregulation of the gastrulation formation marker genes BMP2, BMP4, EOMES and T
- POU5F1 and EOMES immunostaining after removal of the component [2]: reduced or heterogeneous accumulation of the pluripotency factor POU5F1, while promoting the expression of the mesoderm and endoderm progenitor cell marker EOMES

Molecule: LIF: cytokine of 3i/LAF; recombinant human LIF, PeproTech 300-05
- clone morphology / AP staining after removal of the component [4]: not a necessary condition for maintaining the morphology of pgEpiSC clones
- detection of phosphorylated STAT3 [5]: phosphorylated STAT3 could only be detected in the presence of LIF

Molecule: Oc1nc(-c2ccc(C(F)(F)F)cc2)nc2c1CSCC2 [XAV939]
- maintenance of pluripotency after replacing IWR-1-endo [4, 6]: unable to maintain pluripotency for a long time
- passages until AP positivity was lost [4, 6]: around 8 passages
- expression of core pluripotency factor OCT4 (POU5F1) [1, 6]: downregulated
- expression of pluripotency factors REX1, STELLA, and ESRRB [1, 6]: downregulated

Molecule: FGF2: fibroblast growth factor; recombinant human FGF-basic, Peprotech 100-18B
- proliferation and passage of pgEpiSCs [3]: could not proliferate or passage normally
- proliferation of pgEpiSCs at high concentration ([3]; high concentration of FGF2): cells proliferated faster at the high concentration
- proliferation ability of pgEpiSCs at reduced concentration ([3]; reduced concentration of FGF2, otherwise unchanged conditions): significantly reduced the proliferation ability of pgEpiSCs

B1: Activin A: a member of the TGF-β superfamily; recombinant human Activin A, Peprotech 120-14E (protein, UniProt P08476 311-426, looked up)
Inhibin beta A chain: GLECDGKVNICCKKQFFVSFKDIGWNDWIIAPSGYHANYCEGECPSHIAGTSGSSLSFHSTVINHYRMRGHSPFANLKSCCVPTKLRPMSMLYYDDGQNIIKKDIQNMIVEECGCS
modifications: Inhibin beta A chain recombinant homodimer
- marker gene mRNA expression after removal of the component [1]: reduced levels of the pluripotency marker NANOG
